Assays:
[1] = target: T1, human orexin type 2 receptor (Homo sapiens, UniProt O43614); experiment: Measurement of orexin type 2 receptor agonist activity (calcium fluorescence, CHO cells expressing hOX2R); assay type: cell-based; details: test compound 3 μM; CHO cells expressing human OX2 receptor; DMSO = 0%, orexin A (human) = 100%
T1 construct: human orexin type 2 receptor cDNA was inserted into pcDNA3.1(+) plasmid vector (Invitrogen); expressed in transfected cells
T1 sequence (O43614 1-444): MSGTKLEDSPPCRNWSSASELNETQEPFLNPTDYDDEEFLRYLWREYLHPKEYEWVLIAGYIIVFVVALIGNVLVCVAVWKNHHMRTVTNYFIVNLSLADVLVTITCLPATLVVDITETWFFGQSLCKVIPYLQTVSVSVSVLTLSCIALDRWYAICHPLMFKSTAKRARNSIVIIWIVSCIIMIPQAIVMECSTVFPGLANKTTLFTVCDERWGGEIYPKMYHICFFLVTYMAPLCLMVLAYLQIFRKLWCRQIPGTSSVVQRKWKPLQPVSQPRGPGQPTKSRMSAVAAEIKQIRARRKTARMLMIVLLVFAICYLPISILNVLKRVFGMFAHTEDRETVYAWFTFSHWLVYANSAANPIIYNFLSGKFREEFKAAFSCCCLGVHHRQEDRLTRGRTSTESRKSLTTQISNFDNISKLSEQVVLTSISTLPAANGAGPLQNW
Summary of the method: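 CHO-dhfr cells stably expressing hOX2R, loaded with Fluo-4 AM in HBSS/20 mM HEPES/0.1% BSA with probenecid, then given test compound. Calcium fluorescence was read for about 2 min 40 sec. Activity (%) was scaled between DMSO (0%) and 10 nM final human orexin A (100%).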

cynomolgus monkeys = experiment: Evaluation of wake-promoting effects in cynomolgus monkeys (EEG/EMG/EOG); assay type: in vivo; details: Macaca fascicularis, sc, 4 h; 1 mg/kg, s.c., cynomolgus monkeys, administered at ZT12; read-out: Wakefulness time (% of vehicle treatment) (Mean, n = 1-2)
Protocol: The wake-promoting effects were evaluated by measuring the electroencephalogram (EEG), electromyogram (EMG) and electrooculogram (EOG) in cynomolgus monkeys. Under isoflurane anesthesia (1-5%, Pfizer Japan Inc., Tokyo, Japan), male cynomolgus monkeys (3-5 years old, Hamri Co., Ltd., Ibaraki, Japan) were surgically implanted with radio-telemetry transmitters (TL10M3-D70-EEE, Data Sciences International Inc., MN, USA). EEG leads were stereotaxically positioned at the parietal area and secured to the cranium with stainless-steel screws in contact with the dura. […] Bilateral EMG leads were implanted into the back cervical muscles. After the surgery, each monkey was given penicillin (100,000 units/head, i.m., Meiji Seika Pharma Co., Ltd., Tokyo, Japan), buprenorphine (0.02 mg/kg, i.m., Otsuka Pharmaceutical Co., Ltd., Tokyo, Japan) and prednisolone (1 mg/kg, s.c., Kyoritsu Seiyaku Co., Ltd., Tokyo, Japan) daily for one week. After at least a 1-month recovery period in home cages, the monkeys were habituated to the recording chamber (an acrylic cage 60W×55D×75H (cm)) located in a soundproof, electrically shielded room. After we confirmed that monkeys slept sufficiently in the experimental room, cortical EEG, EMG and EOG signals were recorded using Dataquest ART software (Data Sciences International Inc., MN, USA). The signals were semi automatically scored in 20 sec epochs by a sleep scoring system (SleepSign, Kissei Comtec Co., Ltd., Nagano, Japan). This preliminary scoring was visually inspected and corrected if necessary. Test compound (10 mg/kg, Table 4-1) suspended in 0.5% methylcellulose aqueous solution, or vehicle (i.e., 0.5% methylcellulose aqueous solution) was administered orally (p.o.) to monkeys at zeitgeber time 12 (ZT12) in a volume of 5 mL/kg body weight in a cross-over design. EEG, EMG and EOG recordings were performed for 4 h after the compound administration/treatments. The time spent in wakefulness for 4 h after administration (% of vehicle treatment) was calculated by using SleepSign. Test compound (1 mg/kg, Table 4-2) dissolved in a mixed solution comprising 5% DMSO, 5% Cremophor EL, 20% PEG400 and 70% soluplus (1% (w/v)), or vehicle (i.e., a mixed solution comprising 5% DMSO, 5% Cremophor EL, 20% PEG400 and 70% soluplus (1% (w/v))) was administered subcutaneously (s.c.) to monkeys at ZT12 in a volume of 0.5 mL/kg body weight in a pre-post design. EEG, EMG and EOG recordings were performed for 4 h after the compound administration/treatments. The time spent in wakefulness for 4 h after administration (% of vehicle treatment) was calculated by using SleepSign.

Compound	OX2R agonist activity (3 μM, %) [1] [%]	response vs control in vivo at 1 mg/kg (cynomolgus monkeys) [%]
CCS(=O)(=O)N[C@H]1CCN(C(=O)N(C)OC)[C@H]1Cc1cccc(-c2ccccc2)c1 [Example 407, (2S,3S)-2-(biphenyl-3-ylmethyl)-3-((ethylsulfonyl)amino)-N-methoxy-N-methylpyrrolidine-1-carboxamide]	107	391
CCS(=O)(=O)N[C@H]1CCN(C(=O)N2CCC2)[C@H]1Cc1cccc(-c2cc(F)cc(F)c2)c1 [Example 362, N-((2S,3S)-1-(azetidin-1-ylcarbonyl)-2-((3′,5′-difluorobiphenyl-3-yl)methyl)pyrrolidin-3-yl)ethanesulfonamide]	103	271
CCS(=O)(=O)N[C@H]1CCN(C(=O)N2CCC2)[C@H]1Cc1cccc(-c2ccccc2)c1 [Example 364, N-((2S,3S)-1-(azetidin-1-ylcarbonyl)-2-(biphenyl-3-ylmethyl)pyrrolidin-3-yl)ethanesulfonamide]	104	375
CCS(=O)(=O)N[C@H]1CCN(C(=O)N2CCC2)[C@H]1Cc1cccc(-c2ccccc2)c1F [Example 456, N-{(2S,3S)-1-(azetidine-1-carbonyl)-2-[(2-fluoro[1,1′-biphenyl]-3-yl)methyl]pyrrolidin-3-yl}ethanesulfonamide]	104	446
CCS(=O)(=O)N[C@H]1CCN(C(=O)N(C)OC)[C@H]1Cc1cccc(-c2cccc(F)c2)c1 [Example 474, (2S,3S)-3-[(ethanesulfonyl)amino]-2-[(3′-fluoro[1,1′-biphenyl]-3-yl)methyl]-N-methoxy-N-methylpyrro-lidine-1-carboxamide]	109	329
COCS(=O)(=O)N[C@H]1CCN(C(=O)C2CCC2)[C@H]1Cc1cccc(-c2ccccc2)c1 [Example 324, N-((2S,3S)-2-(biphenyl-3-ylmethyl)-1-(cyclobutylcarbonyl)pyrrolidin-3-yl)-1-methoxymethanesulfonamide]	103	–
CC(C)OC(=O)N1CCC[C@H](NS(C)(=O)=O)[C@@H]1Cc1csc(-c2ccccc2)n1 (relative stereo) [Example 89, isopropyl cis-3-((methylsulfonyl)amino)-2-((2-phenyl-1,3-thiazol-4-yl)methyl)piperidine-1-carboxylate]	96	–
O=C(N1CCC1)N1CC[C@H](NS(=O)(=O)CF)[C@@H]1Cc1cccc(-c2ccccc2)c1 [Example 460, N-{(2S,3S)-1-(azetidine-1-carbonyl)-2-[([1,1′-biphenyl]-3-yl)methyl]pyrrolidin-3-yl}-1-fluoromethanesulfonamide]	92	–
O=C(C1CCC1)N1CC[C@H](NS(=O)(=O)CF)[C@@H]1Cc1csc(-c2ccccc2)n1 (relative stereo) [Example 269, N-(cis-1-(cyclobutylcarbonyl)-2-((2-phenyl-1,3-thiazol-4-yl)methyl)pyrrolidin-3-yl)-1-fluoromethanesulfonamide]	111	–

Second part, led by results:

OX2R agonist activity (3 μM, %) [1] [%]	Compound	response vs control in vivo at 1 mg/kg (cynomolgus monkeys) [%]
104	CS(=O)(=O)N[C@H]1CCN(C(=O)N2CCC2)[C@H]1Cc1cccc(-c2cccc(F)c2)c1F [Example 485, N-((2S,3S)-1-(azetidin-1-ylcarbonyl)-2-((2,3′-difluorobiphenyl-3-yl)methyl)pyrrolidin-3-yl)methanesulfonamide]	449
103	CN(C)C(=O)N1CC[C@H](NS(=O)(=O)N(C)C)[C@@H]1Cc1cccc(-c2cc(F)cc(F)c2)c1F [Example 476, (2S,3S)-3-[(dimethylsulfamoyl)amino]-N,N-dimethyl-2-[(2,3′,5′-trifluoro[1,1′-biphenyl]-3-yl)methyl]pyrrolidine-1-carboxamide]	392
103	CN(C)C(=O)N1CC[C@H](NS(=O)(=O)N(C)C)[C@@H]1Cc1cccc(-c2cccc(F)c2)c1F [Example 377, (2S,3S)-2-((2,3′-difluorobiphenyl-3-yl)methyl)-3-((dimethylsulfamoyl)amino)-N,N-dimethylpyrrolidine-1-carboxamide]	343
106	CCS(=O)(=O)N[C@H]1CCN(C(=O)N(C)OC)[C@H]1Cc1cccc(-c2cc(F)cc(F)c2)c1 [Example 477, (2S,3S)-2-[(3′,5′-difluoro[1,1′-biphenyl]-3-yl)methyl]-3-[(ethane-sulfonyl)amino]-N-methoxy-N-methylpyrrolidine-1-carboxamide]	383
104	CCS(=O)(=O)N[C@H]1CCN(C(=O)N(C)C)[C@H]1Cc1cccc(-c2cc(F)cc(F)c2)c1F [Example 487, (2S,3S)-3-((ethylsulfonyl)amino)-N,N-dimethyl-2-((2,3′,5′-trifluorobi-phenyl-3-yl)methyl)pyrrolidine-1-carboxamide]	355
102	CCS(=O)(=O)N[C@H]1CCN(C(=O)N(C)C)[C@H]1Cc1cccc(-c2cccc(F)c2)c1F [Example 486, (2S,3S)-2-((2,3′-difluorobiphenyl-3-yl)methyl)-3-((ethylsulfonyl)amino)-N,N-dimethylpyrrolidine-1-carboxa-mide]	328
104	CN(C)C(=O)N1CC[C@H](NS(=O)(=O)N(C)C)[C@@H]1Cc1cccc(-c2ccccc2)c1F [Example 475, (2S,3S)-3-[(dimethylsulfamoyl)amino]-2-[(2-fluoro[1,1′-biphenyl]-3-yl)methyl]-N,N-dimethyl-pyrrolidine-1-carboxamide]	410
98	CCS(=O)(=O)N[C@H]1CCN(C(=O)N2CCC2)[C@H]1Cc1cccc(-c2cccc(F)c2)c1F [Example 372, N-((2S,3S)-1-(azetidin-1-ylcarbonyl)-2-((2,3′-difluorobiphenyl-3-yl)methyl)pyrrolidin-3-yl)ethanesulfonamide]	328
